Laboratory results: patent US6958318B2, “Recombinant bacterial cells for delivery of PNP to tumor cells” (The UAB Research Foundation, priority 1993, dated 2005)
Where “and” joins values, the source holds several entries; their conditions need not be identical. Equal values may be shown once. Entries after “also recorded” stand apart in the source; their conditions may differ.

Columns and labels:
Mel-1 melanoma cells = assay: Killing of Mel-1 cells transfected with Tyr-PNP or SV-PNP; format: cell-based, human; conditions: 30 μg/ml, day 6
Source text: To eliminate possible toxicity associated with the non-hydrolyzable cationic lipid component of the LipofectinJ, an alternative liposome transfection vehicle was used in the killing experiments. A liposome vehicle consisting of a 1:1 (weight/weight) mixture of the cationic lipid DOTAP (1,2-dioleoyloxy-3-(trimethylammonium)-propane) and the neutral lipid DOPE (dioleoyl-phosphatidylethanolamine) (Avanti Polar Lipids) display transfection properties similar to LipofectinJ, but with less toxicity (data not shown). DOTAP/DOPE liposomes were prepared by mixing 0.5 mg of DOTAP and 0.5 mg of DOPE and evaporating the chloroform solvent. Following the addition of 500 μl of cyclohexane, the mixture was placed on dry ice and lyophilized. One ml of sterile water was added to the powdered lipids and the solution was vortexed every 5 minutes for 30 minutes. T-84 or Mel-1 cells were seeded at 30% confluency in 24-well plates and allowed to grow overnight. […]
In cells that received the PNP or control plasmids, the media was changed two days after transfection and MeP-dR (6-methylpurine-deoxyriboside) added to the appropriate wells to a final concentration of 30 μg/ml. […] Two days later (day 6), the cells were washed once with PBS, resuspended, and counted in a 20% solution of trypan blue reagent (Trypan Blue Stain 0.4%, Gibco-BRL, Gaithersburg, Md.) using a hemacytometer. […]

16/C-PNP cells = assay: 16/C-PNP tumors in athymic nude mice
[1] = Stability under tissue culture conditions (HPLC of supernatants); conditions: HPLC analysis of supernatants
[2] = test system: T-84 colon carcinoma cells transfected with E. coli PNP; assay: Toxicity of MeP-dR in T-84 cells transfected with E. coli PNP; format: cell-based, human
Protocol: Cationic liposome mediated gene transfer was used to transfect T-84 colon carcinoma cells. Briefly, 6 μg of plasmid containing PNP or LacZ was added to 10 μg of a 1:1 molar mixture of DOTMA/DOPE (LipofectinJ (GIBCO/BRL, Gaithersburg, Md.)) in a final volume of 200 μl DMEM/FI2 serum free medium. After a 10 minute incubation at room temperature, the DNA-lipid mixture was added to 500 μl serum free medium and was used to cover the cells within a tray. Four hours later, transfection medium was removed from each well and 2 ml DMEM/FI2 with 10% fetal bovine serum was added.
Forty-eight hours following transfection, fresh medium was added and MeP-dR (1 mg/ml in PBS) was added directly to the cells to achieve the desired final concentrations. Cell viability was measured 5 days following treatment as described for the MeP-dR toxicity study.
After 5 days the cells were removed from each well and the number of dye excluding cells were determined with the aid of a hemacytometer. 30-50% toxicity due to the DOTMA-DOPE transfection protocol is acceptable for cationic liposome mediated gene transfer to T-84 in vitro when performed under optimal conditions.
In an additional experiment, approximately 2×10^5 cells per well were transfected as above using 6 μg of plasmid containing E. coli PNP cDNA. Two days after transfection, varying concentrations of MeP-dR (0, 2, 4, 20, 40 and 160 μM) were added to the wells, and after 5 days the dye excluding cells were counted with the aid of a hemacytometer.
An experiment was also performed in triplicate in which 2×10^5 cells per well were transfected with LacZ or PNP using the protocol described for transfection. Two days after transfection, 16 μM MeP-dR was added to one set of the cultures transfected with PNP and one set of the cultures transfected with LacZ.

E. coli PNP = E. coli PNP (Escherichia coli, UniProt P0ABP8); format: biochemical
B16 melanoma cells = assay: Bystander killing, mixed wild type and PNP-transduced B16 cells; format: cell-based, murine; conditions: 20 μg/ml
Mel-1 cells = assay: Wild type melanoma cell viability; format: cell-based, human; conditions: concentrations as high as 50 μg/ml, five days

Sequence of E. coli PNP (P0ABP8 2-239): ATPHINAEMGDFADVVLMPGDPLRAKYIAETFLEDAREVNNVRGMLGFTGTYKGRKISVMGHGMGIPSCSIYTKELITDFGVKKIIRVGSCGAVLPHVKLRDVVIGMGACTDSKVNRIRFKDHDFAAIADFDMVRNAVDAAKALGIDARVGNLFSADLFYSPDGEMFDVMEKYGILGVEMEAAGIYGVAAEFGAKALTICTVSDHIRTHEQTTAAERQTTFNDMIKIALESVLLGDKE

**Q.** For Cc1ncnc2c1ncn2[C@H]1C[C@H](O)[C@@H](CO)O1 [MeP-dR, 9-(β-D-2-deoxyerythropentofuranosyl)-6-methylpurine], which “Killing of Mel-1 cells transfected with SV-PNP” value (Mel-1 melanoma cells) is on record?
**A.** The value was “susceptible to killing”.

**Q.** What about the “Killing of Mel-1 cells transfected with Tyr-PNP” value (Mel-1 melanoma cells) of the same compound?
**A.** The value was “susceptible to killing”.

**Q.** What about the “Tumor detection, early treatment group” value (16/C-PNP cells; 100 mg/kg IP days 1-4) of the same compound?
**A.** The value was “none of the mice had any detectable tumor up to 18 days post engraftment”.

**Q.** What about the “Deaths, early treatment group” value (16/C-PNP cells; 100 mg/kg IP days 1-4, n=4) of the same compound?
**A.** Its value is “two more died at day 20”.

**Q.** And the “Survival, late treatment group” value (16/C-PNP cells; 100 mg/kg IP days 13, 14, 15)?
**A.** The value was “All of these animals survived for the complete experiment”.

**Q.** And the “Tumor size, late treatment group” value (16/C-PNP cells; 100 mg/kg IP days 13, 14, 15)?
**A.** Its value is “did not increase in size after day 15”.

**Q.** And the “Antitumor effect of MeP-dR on PNP-transduced 16/C tumors” value (16/C-PNP cells; days 13-15 or days 1-4)?
**A.** Its value is “substantial antitumor effects”.

**Q.** And the “Stability under tissue culture conditions” value [1]?
**A.** The value was “stable”.

**Q.** And the “Inhibition of cell growth” value ([2]; 4 μM, 5 days, 6 μg PNP plasmid)?
**A.** The value was “greater than 80%”.

**Q.** What about the “Killing after PNP transfection” value ([2]; 16 μM) of the same compound?
**A.** Its value is “Substantial killing”.

**Q.** And the “Killing of cells transfected with E. coli PNP” value ([2]; 160 μM, 5 days)?
**A.** Its value is “killed virtually all of the cells”.

**Q.** And the “Percent of substrate cleaved by E. coli PNP, 100 μM” value (E. coli PNP)?
**A.** The value was 91(86)45(21) Percent and 93(87)29(24) Percent.

**Q.** What about the “Percent of substrate cleaved by E. coli PNP, 1 mM” value (E. coli PNP) of the same compound?
**A.** Its value is 91(86)45(21) Percent and 93(87)29(24) Percent.

**Q.** And the “Substrate quality for bacterial (E. coli) PNP” value (E. coli PNP)?
**A.** Its value is “good substrates”.

**Q.** And the “Toxicity to untransduced B16 cells” value (B16 melanoma cells)?
**A.** The value was “not toxic”.

**Q.** What about the “Cell proliferation when as few as 2% of cells express E. coli PNP” value (B16 melanoma cells; mixed culture) of the same compound?
**A.** The value was “completely eliminated cell proliferation; also recorded: Complete abrogation of cellular proliferation”.

**Q.** What about the “Share of cells expressing PNP required for total population cell killing” value (B16 melanoma cells; LDH release assay) of the same compound?
**A.** Its value is 10%.

**Q.** What about the “Effect on Mel-1 cells” value (Mel-1 cells) of the same compound?
**A.** Its value is “unaffected”.
